Test results as given in ChEMBL document CHEMBL5104192, “Late-Stage Functionalization with Cysteine Staples Generates Potent and Selective Melanocortin Receptor-1 Agonists” (J Med Chem, 2022).
*1 amine or outer side, *2 acyl side, *3 side chain or, on linkers, in order; H or OH if unused. Where a SMILES comes first, the peptide text is derived from it. Bridges are numbered along the chain shown (N, C = ends). [ ]: non-standard residue; d: D form. X2 = NCCOCCOCCNC(=O)OCC1C2CCc3c([*:1])nnc([*:2])c3CCC21; C6F4(1,4-diyl) = Fc1c(F)c([*:2])c(F)c(F)c1[*:1]; Nle = CCCC[C@H](N)C(=O)O

Assays:
Homo sapiens [1] = organism: Homo sapiens; assay: Selectivity ratio of EC50 for human MC4R to EC50 for human MC1R
Melanocortin receptor 5 = Melanocortin receptor 5 (Homo sapiens, UniProt P33032); assay: Agonist activity at human MC5R expressed in HEK2936E cells assessed as cAMP production in presence of IBMX by time resolved fluorescence assay; assay type: functional, cell-based
Homo sapiens [2] = organism: Homo sapiens; assay: Selectivity ratio of Ki for human MC4R to Ki for human MC1R
Melanocortin receptor 3 [3] = biological target: T1, Melanocortin receptor 3 (Homo sapiens, UniProt P41968); assay: Displacement of [125I]-NDP-alpha-MSH from human MC3R expressed in HEK2936E cell membrane measured after 16 to 23 hrs by 1450 microbeta trilux scintillation proximity assay; assay type: cell membranes; conditions: for pKi: hek2936e
Melanocortin receptor 4 [4] = biological target: T2, Melanocortin receptor 4 (Homo sapiens, UniProt P32245); assay: Displacement of [125I]-NDP-alpha-MSH from human MC4R expressed in HEK2936E cell membrane measured after 16 to 23 hrs by 1450 microbeta trilux scintillation proximity assay; assay type: cell membranes; conditions: for pKi: hek2936e
Homo sapiens [5] = organism: Homo sapiens; assay: Selectivity ratio of Ki for human MC3R to Ki for human MC1R
Homo sapiens [6] = organism: Homo sapiens; assay: Selectivity ratio of EC50 for human MC3R to EC50 for human MC1R
Melanocortin receptor 3 [7] = biological target: T1, Melanocortin receptor 3; assay: Agonist activity at human MC3R expressed in HEK2936E cells assessed as cAMP production in presence of IBMX by time resolved fluorescence assay; assay type: functional, cell-based; conditions: for pEC50: hek2936e
Melanocortin receptor 4 [8] = biological target: T2, Melanocortin receptor 4; assay: Agonist activity at human MC4R expressed in HEK2936E cells assessed as cAMP production in presence of IBMX by time resolved fluorescence assay; assay type: functional, cell-based; conditions: for pEC50: hek2936e
[9] = biological target: T3, Melanocyte-stimulating hormone receptor (Homo sapiens, UniProt Q01726); assay: Displacement of [125I]-NDP-alpha-MSH from human MC1R expressed in HEK2936E cell membrane measured after 16 to 23 hrs by 1450 microbeta trilux scintillation proximity assay; assay type: cell membranes; conditions: for pKi: hek2936e
[10] = biological target: T3, Melanocyte-stimulating hormone receptor; assay: Agonist activity at human MC1R expressed in HEK2936E cells assessed as cAMP production in presence of IBMX by time resolved fluorescence assay; assay type: functional, cell-based; conditions: for pEC50: hek2936e

T1 sequence (P41968 whole entry): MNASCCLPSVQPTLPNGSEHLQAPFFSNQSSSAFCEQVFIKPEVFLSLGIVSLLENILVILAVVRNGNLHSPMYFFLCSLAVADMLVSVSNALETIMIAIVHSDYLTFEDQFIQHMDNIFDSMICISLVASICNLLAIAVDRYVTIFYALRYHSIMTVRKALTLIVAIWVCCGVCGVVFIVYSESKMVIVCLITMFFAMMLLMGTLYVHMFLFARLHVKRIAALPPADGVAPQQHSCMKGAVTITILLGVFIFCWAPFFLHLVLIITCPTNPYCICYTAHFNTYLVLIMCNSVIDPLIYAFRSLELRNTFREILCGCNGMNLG
T3 sequence (Q01726 whole entry): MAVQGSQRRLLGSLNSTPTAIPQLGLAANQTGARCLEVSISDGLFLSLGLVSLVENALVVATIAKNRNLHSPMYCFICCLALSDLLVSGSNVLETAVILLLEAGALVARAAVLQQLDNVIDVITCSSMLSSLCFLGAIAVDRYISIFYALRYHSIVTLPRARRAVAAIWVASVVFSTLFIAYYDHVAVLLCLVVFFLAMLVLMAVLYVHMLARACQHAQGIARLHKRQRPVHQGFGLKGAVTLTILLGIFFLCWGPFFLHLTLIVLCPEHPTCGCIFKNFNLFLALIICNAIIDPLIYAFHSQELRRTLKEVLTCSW
T2 sequence (P32245 whole entry): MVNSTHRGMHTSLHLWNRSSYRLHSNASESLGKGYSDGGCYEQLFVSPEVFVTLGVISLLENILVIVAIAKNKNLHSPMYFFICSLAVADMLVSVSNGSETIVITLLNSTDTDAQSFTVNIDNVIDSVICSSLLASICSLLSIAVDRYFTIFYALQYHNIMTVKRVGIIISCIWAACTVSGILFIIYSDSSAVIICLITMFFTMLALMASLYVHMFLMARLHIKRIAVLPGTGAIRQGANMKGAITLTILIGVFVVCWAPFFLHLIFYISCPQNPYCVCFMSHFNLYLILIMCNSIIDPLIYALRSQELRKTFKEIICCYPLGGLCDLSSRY
Sequence of Melanocortin receptor 5 (P33032 whole entry): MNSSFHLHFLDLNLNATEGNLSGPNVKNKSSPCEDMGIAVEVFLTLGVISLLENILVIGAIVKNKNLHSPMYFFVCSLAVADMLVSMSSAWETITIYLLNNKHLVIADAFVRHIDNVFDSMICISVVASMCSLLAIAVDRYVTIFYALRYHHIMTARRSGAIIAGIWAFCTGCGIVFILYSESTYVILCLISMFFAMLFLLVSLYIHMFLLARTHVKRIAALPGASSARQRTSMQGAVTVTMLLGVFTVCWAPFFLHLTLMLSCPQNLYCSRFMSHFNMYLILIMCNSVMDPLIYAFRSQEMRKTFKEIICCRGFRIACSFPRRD

Row | Ki (Melanocortin receptor 3 [3]) [nM] | Ki (Melanocortin receptor 4 [4]) [nM] | EC50 (Melanocortin receptor 3 [7]) [nM] | EC50 (Melanocortin receptor 4 [8]) [nM] | Ki [9] [nM] | EC50 ([10]; read-out: EC50) [nM] | EC50 ([10]; read-out: pEC50 (converted)) [nM] | SMILES | Ratio EC50 (Homo sapiens [1]) | pEC50 (Melanocortin receptor 5) | Ratio Ki (Homo sapiens [2]) | pKi (Melanocortin receptor 3 [3]) | pKi (Melanocortin receptor 4 [4]) | Ratio Ki (Homo sapiens [5]) | Ratio EC50 (Homo sapiens [6]) | pEC50 (Melanocortin receptor 3 [7]) | pEC50 (Melanocortin receptor 4 [8]) | pKi [9] | pEC50 [10]
1 | – | – | – | – | – | – | – | CC[C@H](C)[C@@H]1NC(=O)[C@@H]2CCCN2C(=O)[C@H](Cc2c[nH]c3ccccc23)NC(=O)[C@H](CCCNC(=N)N)N(C)C(=O)[C@H](Cc2ccccc2)NC(=O)[C@H](Cc2cnc[nH]2)NC(=O)[C@H]([C@@H](C)O)NC(=O)[C@H](NC(C)=O)CCSCc2cccc(c2)CSCC[C@H](C(N)=O)NC1=O | 110 | 4.78 | 9 | 5.08 | 6.34 | 170 | 219 | 6.42 | 6.72 | 7.31 | 8.79
2 | – | – | – | – | – | – | – | CC[C@H](C)[C@@H]1NC(=O)[C@@H]2CCCN2C(=O)[C@H](Cc2c[nH]c3ccccc23)NC(=O)[C@H](CCCNC(=N)N)N(C)C(=O)[C@H](Cc2ccccc2)NC(=O)[C@H](Cc2cnc[nH]2)NC(=O)[C@H]([C@@H](C)O)NC(=O)[C@H](NC(C)=O)CCSSCC[C@H](C(N)=O)NC1=O | 10 | 5.38 | 5 | 5.2 | 6.53 | 110 | 40 | 6.72 | 7.32 | 7.24 | 8.32
3 | – | – | – | – | – | – | – | CC[C@H](C)[C@@H]1NC(=O)[C@@H]2CCCN2C(=O)[C@H](Cc2c[nH]c3ccccc23)NC(=O)[C@H](CCCNC(=N)N)N(C)C(=O)[C@H](Cc2ccccc2)NC(=O)[C@H](Cc2cnc[nH]2)NC(=O)[C@H]([C@@H](C)O)NC(=O)[C@H](NC(C)=O)CCSCc2ccc(cc2)CSCC[C@H](C(N)=O)NC1=O | – | 4.71 | – | 4.89 | – | – | – | 6.3 | – | 7 | 8.4
4 | – | – | – | – | – | – | – | CC[C@H](C)[C@@H]1NC(=O)[C@@H]2CCCN2C(=O)[C@H](Cc2c[nH]c3ccccc23)NC(=O)[C@H](CCCNC(=N)N)N(C)C(=O)[C@H](Cc2ccccc2)NC(=O)[C@H](Cc2cnc[nH]2)NC(=O)[C@H]([C@@H](C)O)NC(=O)[C@H](NC(C)=O)CCSCc2ccccc2CSCC[C@H](C(N)=O)NC1=O | 85 | 4.82 | 17 | 4.88 | 5.93 | 191 | 214 | 6.34 | 6.74 | 7.16 | 8.67
5 | 5.13 | 20 | 0.107 | 1.12 | 0.0575 | < 0.009 | < 0.00912 | CCCC[C@@H]1NC(=O)[C@@H]2CSc3nnc(c4c3CCC3C(CC4)C3COC(=O)NCCOCCOCCN)SC[C@H](NC(=O)[C@H](CCCNC(=N)N)NC(=O)[C@H](CC(=O)O)NC(=O)[C@H](Cc3c[nH]c4ccccc34)NC(=O)[C@H](CCCNC(=N)N)NC(=O)[C@H](Cc3ccccc3)NC(=O)[C@H](Cc3cnc[nH]3)NC(=O)CNC1=O)C(=O)N[C@@H](Cc1cnc[nH]1)C(=O)N[C@@H](Cc1ccccc1)C(=O)N[C@@H](CCCNC(=N)N)C(=O)N[C@@H](Cc1c[nH]c3ccccc13)C(=O)N[C@@H](CCCNC(=N)N)C(=O)N2 (some centres undefined) (cyclo(CHFRWRC[Nle]GHFRWDR); linker 1-7 via X2) | 123 | – | 347 | – | – | 89 | 12 | – | – | – | –
6 | 5.5 | 30.9 | 0.105 | 3.02 | 0.389 | – | 0.0468 | CCCC[C@@H]1NC(=O)[C@@H]2CSC/C(=N/OCC(=O)NCCOCCOCCOCCN=[N+]=[N-])CSC[C@H](NC(=O)[C@H](CCCNC(=N)N)NC(=O)[C@H](CC(=O)O)NC(=O)[C@H](Cc3c[nH]c4ccccc34)NC(=O)[C@H](CCCNC(=N)N)NC(=O)[C@H](Cc3ccccc3)NC(=O)[C@H](Cc3cnc[nH]3)NC(=O)CNC1=O)C(=O)N[C@@H](Cc1cnc[nH]1)C(=O)N[C@@H](Cc1ccccc1)C(=O)N[C@@H](CCCNC(=N)N)C(=O)N[C@@H](Cc1c[nH]c3ccccc13)C(=O)N[C@@H](CCCNC(=N)N)C(=O)N2 | 65 | – | 79 | – | – | 14 | 2 | – | – | – | –
7 | 11.7 | 45.7 | 0.275 | 3.55 | 0.794 | – | 0.123 | CCCC[C@@H]1NC(=O)[C@@H]2CSc3c(F)c(F)c(c(F)c3F)SC[C@H](NC(=O)[C@H](CCCNC(=N)N)NC(=O)[C@H](CC(=O)O)NC(=O)[C@H](Cc3c[nH]c4ccccc34)NC(=O)[C@H](CCCNC(=N)N)NC(=O)[C@H](Cc3ccccc3)NC(=O)[C@H](Cc3cnc[nH]3)NC(=O)CNC1=O)C(=O)N[C@@H](Cc1cnc[nH]1)C(=O)N[C@@H](Cc1ccccc1)C(=O)N[C@@H](CCCNC(=N)N)C(=O)N[C@@H](Cc1c[nH]c3ccccc13)C(=O)N[C@@H](CCCNC(=N)N)C(=O)N2 (cyclo(CHFRWRC[Nle]GHFRWDR); linker 1-7 via C6F4(1,4-diyl)) | 29 | – | 58 | – | – | 15 | 2 | – | – | – | –
